In brackets after ≈: the same amount, converted by molar mass.

Holding throughout (format): functional
One experiment concerns Klebsiella pneumoniae. In words: Antimicrobial activity against Klebsiella pneumoniae ATCC 13883 after 24 hrs by broth microdilution method. The settings on record: ATCC 13883, 24 h. In general terms: In broth dilution the organism is exposed to a series of concentrations in liquid medium.
Experiment [1] has as its system Escherichia coli. In words: Antimicrobial activity against Escherichia coli ATCC 35218 after 24 hrs by broth microdilution method. The conditions noted are these: ATCC 35218, 24 h.
A further experiment concerns Pichia kudriavzevii. In words: Antimicrobial activity against Candida krusei ATCC 6258 after 24 hrs by broth microdilution method. The settings on record: ATCC 6258, 24 h.
Experiment [2] concerns Enterococcus faecalis. The experiment in a line: Antimicrobial activity against Enterococcus faecalis ATCC 29212 after 24 hrs by broth microdilution method. The conditions noted are these: ATCC 29212, 24 h.
For a further experiment, the system named is Listeria monocytogenes. The experiment in a line: Antimicrobial activity against Listeria monocytogenes ATCC 19115 after 24 hrs by broth microdilution method. The settings on record: ATCC 19115, 24 h.
The test system of a further experiment is Nakaseomyces glabratus. The experiment in a line: Antimicrobial activity against Candida glabrata ATCC 90030 after 24 hrs by broth microdilution method. The settings on record: ATCC 90030, 24 h.
A further experiment relates to Candida albicans. The experiment in a line: Antimicrobial activity against Candida albicans ATCC 90028 after 24 hrs by broth microdilution method. The settings on record: ATCC 90028, 24 h.
The subject of a further experiment is Pseudomonas aeruginosa. In words: Antimicrobial activity against Pseudomonas aeruginosa ATCC 27853 after 24 hrs by broth microdilution method. The settings on record: ATCC 27853, 24 h.
A further experiment deals with Staphylococcus aureus. In words: Antimicrobial activity against Staphylococcus aureus ATCC 25923 after 24 hrs by broth microdilution method. The settings on record: ATCC 25923, 24 h.
For experiment [3], the system named is Enterococcus faecalis. In words: Antimicrobial activity against Enterococcus faecalis ATCC 51299 after 24 hrs by broth microdilution method. The settings on record: ATCC 51299, 24 h.
The subject of experiment [4] is Escherichia coli. The experiment in a line: Antimicrobial activity against Escherichia coli ATCC 25922 after 24 hrs by broth microdilution method. The settings on record: ATCC 25922, 24 h.

With `COc1ccc(Nn2c(SCC(=O)c3ccc(F)cc3)nc(C)c2C)cc1`, the MIC came to 800 µg/mL (≈ 2080 µM) in the experiment on Klebsiella pneumoniae; 800 µg/mL (≈ 2080 µM) against Escherichia coli [1]; 400 µg/mL (≈ 1040 µM) in the experiment with Pichia kudriavzevii; 1600 µg/mL (≈ 4150 µM) against Enterococcus faecalis [2]; 400 µg/mL (≈ 1040 µM) against Listeria monocytogenes; 400 µg/mL (≈ 1040 µM) with Nakaseomyces glabratus. In addition, the MIC in the experiment with Candida albicans stood at 400 µg/mL (≈ 1040 µM); with Pseudomonas aeruginosa, 800 µg/mL (≈ 2080 µM); against Staphylococcus aureus, 800 µg/mL (≈ 2080 µM); in the experiment on Enterococcus faecalis [3], 800 µg/mL (≈ 2080 µM); with Escherichia coli [4], 800 µg/mL (≈ 2080 µM).
Consider `COc1ccc(Nn2c(SCC(=O)c3ccc(F)c(F)c3)nc(C)c2C)cc1`, for which the MIC against Klebsiella pneumoniae stood at 800 µg/mL (≈ 1980 µM); with Escherichia coli [1], 800 µg/mL (≈ 1980 µM); in the experiment with Pichia kudriavzevii, 400 µg/mL (≈ 991 µM); against Enterococcus faecalis [2], 1600 µg/mL (≈ 3970 µM); against Listeria monocytogenes, 800 µg/mL (≈ 1980 µM); in the experiment with Nakaseomyces glabratus it was 800 µg/mL (≈ 1980 µM). For the same molecule, the MIC in the experiment with Candida albicans is 400 µg/mL (≈ 991 µM); with Pseudomonas aeruginosa, 800 µg/mL (≈ 1980 µM); with Staphylococcus aureus, 800 µg/mL (≈ 1980 µM); in the experiment with Enterococcus faecalis [3], 800 µg/mL (≈ 1980 µM); against Escherichia coli [4], 800 µg/mL (≈ 1980 µM).
In the case of `COc1ccc(Nn2c(SCC(=O)c3cccc(Cl)c3)nc(C)c2C)cc1`, the MIC was determined as 800 µg/mL (≈ 1990 µM) in the experiment on Klebsiella pneumoniae; 800 µg/mL (≈ 1990 µM) with Escherichia coli [1]; 400 µg/mL (≈ 995 µM) with Pichia kudriavzevii; 800 µg/mL (≈ 1990 µM) in the experiment with Enterococcus faecalis [2]; 800 µg/mL (≈ 1990 µM) with Listeria monocytogenes; 800 µg/mL (≈ 1990 µM) against Nakaseomyces glabratus. Moreover, the minimal inhibitory concentration (MIC) against Candida albicans, in the experiment with Pseudomonas aeruginosa, in the experiment on Staphylococcus aureus, in the experiment on Enterococcus faecalis [3] and in the experiment with Escherichia coli [4] was 800 µg/mL (≈ 1990 µM) in each case.
As to `COc1ccc(Nn2c(SCC(=O)c3ccc(Cl)cc3)nc(C)c2C)cc1`, the MIC in the experiment with Klebsiella pneumoniae is 400 µg/mL (≈ 995 µM); in the experiment on Escherichia coli [1], 800 µg/mL (≈ 1990 µM); with Pichia kudriavzevii it was 400 µg/mL (≈ 995 µM); in the experiment with Enterococcus faecalis [2], 400 µg/mL (≈ 995 µM); against Listeria monocytogenes, 400 µg/mL (≈ 995 µM); against Nakaseomyces glabratus, 400 µg/mL (≈ 995 µM). Further, the MIC turned out to be 400 µg/mL (≈ 995 µM) against Candida albicans; 800 µg/mL (≈ 1990 µM) in the experiment on Pseudomonas aeruginosa; 400 µg/mL (≈ 995 µM) against Staphylococcus aureus; 800 µg/mL (≈ 1990 µM) against Enterococcus faecalis [3]; 400 µg/mL (≈ 995 µM) in the experiment on Escherichia coli [4].
As to `COc1ccc(Nn2c(SCC(=O)c3ccc(Cl)c(Cl)c3)nc(C)c2C)cc1`, the MIC came to 800 µg/mL (≈ 1830 µM) with Klebsiella pneumoniae; 800 µg/mL (≈ 1830 µM) in the experiment on Escherichia coli [1]; 800 µg/mL (≈ 1830 µM) against Pichia kudriavzevii; 400 µg/mL (≈ 917 µM) in the experiment on Enterococcus faecalis [2]; 800 µg/mL (≈ 1830 µM) in the experiment on Listeria monocytogenes; 800 µg/mL (≈ 1830 µM) against Nakaseomyces glabratus. The MIC came out at 800 µg/mL (≈ 1830 µM) in the experiment with Candida albicans; 400 µg/mL (≈ 917 µM) against Pseudomonas aeruginosa; 800 µg/mL (≈ 1830 µM) in the experiment with Staphylococcus aureus; 800 µg/mL (≈ 1830 µM) in the experiment with Enterococcus faecalis [3]; 400 µg/mL (≈ 917 µM) with Escherichia coli [4].
With `Cc1nc(SCC(=O)c2ccccc2)n(Nc2ccc(Cl)cc2)c1C`, the MIC came out at 800 µg/mL (≈ 2150 µM) in the experiment with Klebsiella pneumoniae; 800 µg/mL (≈ 2150 µM) in the experiment on Escherichia coli [1]; 800 µg/mL (≈ 2150 µM) against Pichia kudriavzevii; 200 µg/mL (≈ 538 µM) with Enterococcus faecalis [2]; 400 µg/mL (≈ 1080 µM) in the experiment on Listeria monocytogenes; 800 µg/mL (≈ 2150 µM) with Nakaseomyces glabratus. Besides, the minimum inhibitory concentration (MIC) was determined as 800 µg/mL (≈ 2150 µM) with Candida albicans; 400 µg/mL (≈ 1080 µM) against Pseudomonas aeruginosa; 800 µg/mL (≈ 2150 µM) against Staphylococcus aureus; 800 µg/mL (≈ 2150 µM) in the experiment with Enterococcus faecalis [3]; 800 µg/mL (≈ 2150 µM) with Escherichia coli [4].
Regarding `COc1cccc(C(=O)CSc2nc(C)c(C)n2Nc2ccc(Cl)cc2)c1`, the MIC against Klebsiella pneumoniae amounted to 400 µg/mL (≈ 995 µM); against Escherichia coli [1], 800 µg/mL (≈ 1990 µM); against Pichia kudriavzevii it was 200 µg/mL (≈ 498 µM); with Enterococcus faecalis [2], 200 µg/mL (≈ 498 µM); in the experiment on Listeria monocytogenes, 1600 µg/mL (≈ 3980 µM); in the experiment on Nakaseomyces glabratus it was 800 µg/mL (≈ 1990 µM). Moreover, the MIC against Candida albicans is 800 µg/mL (≈ 1990 µM); against Pseudomonas aeruginosa, 800 µg/mL (≈ 1990 µM); against Staphylococcus aureus, 800 µg/mL (≈ 1990 µM); in the experiment with Enterococcus faecalis [3], 400 µg/mL (≈ 995 µM); against Escherichia coli [4], 800 µg/mL (≈ 1990 µM).
On to `COc1ccc(C(=O)CSc2nc(C)c(C)n2Nc2ccc(Cl)cc2)cc1`, for which the MIC in the experiment with Klebsiella pneumoniae was found to be 400 µg/mL (≈ 995 µM); against Escherichia coli [1], 800 µg/mL (≈ 1990 µM); with Pichia kudriavzevii, 200 µg/mL (≈ 498 µM); against Enterococcus faecalis [2] it was 200 µg/mL (≈ 498 µM); with Listeria monocytogenes it was 1600 µg/mL (≈ 3980 µM); against Nakaseomyces glabratus, 800 µg/mL (≈ 1990 µM). Moreover, the minimal inhibitory concentration (MIC) against Candida albicans was found to be 800 µg/mL (≈ 1990 µM); in the experiment with Pseudomonas aeruginosa, 800 µg/mL (≈ 1990 µM); with Staphylococcus aureus, 400 µg/mL (≈ 995 µM); in the experiment with Enterococcus faecalis [3], 400 µg/mL (≈ 995 µM); against Escherichia coli [4] it was 800 µg/mL (≈ 1990 µM).
As to `O=C(N[C@H](CO)[C@H](O)c1ccc([N+](=O)[O-])cc1)C(Cl)Cl` [CHLORAMPHENICOL], the MIC in the experiment with Klebsiella pneumoniae is 50 µg/mL (≈ 155 µM); in the experiment with Escherichia coli [1], 25 µg/mL (≈ 77.4 µM); against Enterococcus faecalis [2], 12.5 µg/mL (≈ 38.7 µM); in the experiment on Listeria monocytogenes, 50 µg/mL (≈ 155 µM); against Pseudomonas aeruginosa, 50 µg/mL (≈ 155 µM); in the experiment with Staphylococcus aureus, 50 µg/mL (≈ 155 µM). Moreover, the MIC in the experiment on Enterococcus faecalis [3] turned out to be 100 µg/mL (≈ 309 µM); against Escherichia coli [4] it was 50 µg/mL (≈ 155 µM).
Consider `CC(=O)N1CCN(c2ccc(OCC3COC(Cn4ccnc4)(c4ccc(Cl)cc4Cl)O3)cc2)CC1` (centres undefined) [KETOCONAZOLE], for which the results for the MIC against Pichia kudriavzevii, in the experiment on Nakaseomyces glabratus and against Candida albicans were 50 µg/mL (≈ 94.1 µM), 100 µg/mL (≈ 188 µM) and 100 µg/mL (≈ 188 µM), respectively.

As usually defined, the MIC is the lowest concentration that inhibits growth of the organism. Higher therefore signals a less susceptible organism.

These data come from ChEMBL document CHEMBL3091428, “Synthesis and initial biological evaluation of substituted 1-phenylamino-2-thio-4,5-dimethyl-1H-imidazole derivatives” (Bioorg Med Chem Lett, 2013).
